From ChEMBL document CHEMBL1201862, “PubChem BioAssay data set” (2004)
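Exposure lasted 48 hours, with cells grown in 96-well plates and compounds tested at five concentrations. GI50 marks 50% less growth.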 The source made the active and inactive calls. Rule as the data show it: active = GI50 up to about 1.1 µM and inactive = higher.

Experiments:
Assay in all cases: NCI tumour cell line growth inhibition, 48 h
SK-MEL-28 = test system: SK-MEL-28
MOLT-4 = test system: MOLT-4
SF-268 = test system: SF-268
TK-10 = test system: TK-10
HCT-15 = test system: HCT-15
HCT-116 = test system: HCT-116
IGROV-1 = test system: IGROV-1
ACHN = test system: ACHN
HOP-92 = test system: HOP-92
EKVX = test system: EKVX
OVCAR-8 = test system: OVCAR-8
UACC-62 = test system: UACC-62
BT-549 = test system: BT-549
SK-OV-3 = test system: SK-OV-3
HL-60 = test system: HL-60
NCI-H23 = test system: NCI-H23
UO-31 = test system: UO-31
NCI-H460 = test system: NCI-H460
A549 = test system: A549
HT-29 = test system: HT-29

`COc1cc(/C=C2/C[C@H]3[C@@H]4CCC5=CC(=O)CC[C@]5(C)[C@H]4CC[C@]3(C)NC2=O)cc(OC)c1OC` was tested, and the GI50 (SK-MEL-28) was 29000 nM (inactive), the GI50 (MOLT-4) was 10200 nM (inactive) and the GI50 (SF-268) was 26300 nM (inactive). For the same compound, the GI50 (TK-10) was 16200 nM (inactive), the GI50 (HCT-15) was 21500 nM and the GI50 (HCT-116) was 26200 nM (inactive). For the same compound, the GI50 (IGROV-1) was 24700 nM (inactive), the GI50 (ACHN) was 26400 nM (inactive) and the GI50 (HOP-92) was 11200 nM (inactive). For the same compound, the GI50 (EKVX) was 24500 nM (inactive), the GI50 (OVCAR-8) was 23700 nM (inactive) and the GI50 (UACC-62) was 23100 nM (inactive). The GI50 (BT-549) was 21600 nM (inactive), the GI50 (SK-OV-3) was 30700 nM (inactive) and the GI50 (HL-60) was 13200 nM (inactive). For the same compound, the GI50 (NCI-H23) was 21300 nM (inactive), the GI50 (UO-31) was 900 nM (active) and the GI50 (NCI-H460) was 28400 nM (inactive). The GI50 (A549) was 20600 nM (inactive) and the GI50 (HT-29) was 19300 nM (inactive).

In the case of `COc1cc2c(cc1OCCCCOc1cc(-c3ccc(F)cc3)nc(C)n1)N=C[C@@H]1CCCN1C2=O`, the GI50 (SK-MEL-28) is reported as 982 nM (active), the GI50 (MOLT-4) is reported as 108 nM (active) and the GI50 (SF-268) is reported as 771 nM (active). For the same compound, the GI50 (TK-10) was 224 nM (active), the GI50 (HCT-15) was 701 nM and the GI50 (HCT-116) was 838 nM (active). For the same compound, the GI50 (IGROV-1) was 731 nM (active), the GI50 (ACHN) was 189 nM (active) and the GI50 (HOP-92) was 443 nM (active). The GI50 (EKVX) was 1660 nM (inactive), the GI50 (OVCAR-8) was 989 nM (active) and the GI50 (UACC-62) was 378 nM (active). For the same compound, the GI50 (BT-549) was 579 nM (active), the GI50 (SK-OV-3) was 3190 nM (inactive) and the GI50 (HL-60) was 279 nM (active). The GI50 (NCI-H23) was 468 nM (active), the GI50 (UO-31) was 500 nM (active) and the GI50 (NCI-H460) was 413 nM (active). For the same compound, the GI50 (A549) was 1150 nM (inactive) and the GI50 (HT-29) was 442 nM (active).
